According to patent publication US20110136916A1, “6-SHOGAOL FOR USING IN A METHOD FOR THE TREATMENT OF LEUKEMIA” (China Pharmaceutical University, priority 2009, published 2011):
“Also recorded” adds a separate entry of the source. Like-named read-outs stand apart in the source and are kept apart here.

Columns and labels:
[1] = system: human ovarian cancer SK-OV-3 cells; settings: cited from earlier work
[2] = system: peripheral blood lymphocytes (PBMC) of healthy volunteers; assay: Annexin V/PI apoptosis of PBMC from healthy volunteers; format: cell-based, human; settings: 24 hours
Experimental: After application by the research group and approval by the Ethics Committee of the hospital, the leukemia patients (healthy volunteers) signed the informed consent and their fresh blood was collected and transferred into heparin anticoagulation tubes, then the same volume of serum free D-Hank buffer (preheated at 37° C.) was added to re-suspend the cells, and the suspension was added to the pre-laid human lymphocyte separating medium (preheated at 37° C.), and the volume ratio between the lymphocyte separating medium and the cell suspension should be no lower than 1:1, and the mixture was centrifuged at room temperature (20-30° C.) at 500×g by a horizontal centrifuge for 30 minutes. The upper layer plasma was removed and the white fog layer in the middle was carefully collected and transferred to 5 mL (or 1-2 times of the volume) PBS (or serum free buffer for cell culture), then it was centrifuged at 200×g or 1000 rpm for 10 minutes at room temperature (20-30° C.), and the supernatant was removed, and the obtained precipitation was the peripheral blood lymphocytes (PBMC). The cells were rinsed twice according to the above-mentioned operations at 500×g by the horizontal centrifuge for 10 minutes at room temperature (20-30° C.), subsequently the cells were collected and their cell vitality was detected by using dye exclusion method for living cells (Trypan blue).
The cells were added to a 24-well plate in 3×10^5 cells/mL/well and different concentrations of 6-shogaol (10 and 20 μM) for treatment for 24 hours after they were incubated for 24 hours. Negative control group (the group without drug) and the treatment group with 6-shogaol were set up for PBMCs from different individuals respectively. After the cells were treated with 6-shogaol for 24 hours, they were transferred into 10 mL glass centrifuge tubes and centrifuged at 500 rpm (or 100×g) for 5 minutes to remove the supernatant. The cells were then rinsed with 0.01 M PBS at 500 rpm (or 100×g) for 5 minutes twice. Subsequently, after adding binding solution and staining according to the directions for use of Annexin V/PI double staining kit (BD Company), flow cytometry analysis (Becton Dickinson FACScan Flow Cytometer) was carried out. The FACS data were analyzed by professional operators of the flow cytometer by using FLOWJO software (Tree Star, Calif.) software, the apoptotic rate was counted by the sum of early apoptosis and late apoptosis, and the results were shown in Table 4 and Table 5.

[3] = system: human acute myelocytic leukemia cell U937; assay: MTT anti-proliferation, U937; format: cell-based; settings: for IC50: U937, MTT, n = 3; for growth inhibition (activities of cells vs control): U937, 1-20 μM
Experimental: (§1) Cells in logarithmic growth phase were collected and then inoculated in 1˜2×10^4 cells/well in a 96-well plate respectively according to the sizes of cells and whether they attached to the wall, the cells were centrifuged and the supernatant was removed after growing for 24 hours, and then drug administration was carried out according to the groups as below: the drug group and the drug free group were set up for tumor cells (the concentrations ranged from 1˜20 μM), 5 or 6 duplicates were set for each group and the cells were incubated for 24 or 72 hours. The supernatant was removed and 100 μl serum free culture solution containing 0.5 mg/ml MTT (tetrazolium) was added for further incubation for 4 hours, subsequently 100 μl DMSO (dimethyl sulfoxide) was added and the plate was kept on the micro-shaker for 10 minutes, and the OD value was determined on a micro-plate reader at the wavelength of 570 nm. Evaluations on the toxicity were carried out on normal human cell line LO-2 and each test was repeated for three times.

ddY line mice = settings: cited from earlier work
[4] = cited from earlier work
[5] = system: normal human cell line LO-2; assay: MTT toxicity evaluation on normal cell line LO-2; format: cell-based; settings: for growth inhibition of normal hepatic cell line LO-2: LO-2, 1-20 μM
Experimental: as §1

SMILES: CCCCC/C=C/C(=O)CCc1ccc(O)c(OC)c1 [6-shogaol]
- anti-tumor activities [1]: certain anti-tumor activities
- effect on apoptosis of PBMC of healthy volunteers (t-test) ([2]; 10 cases of healthy volunteers, 10 and 20 μM): no significant difference; also recorded: no significant effects
- Apoptotic rate of 10 μM 6-shogaol ([2]; PBMC of healthy volunteer N1, 10 μM): 17.5 ± 0.8%
- Apoptotic rate of 20 μM 6-shogaol ([2]; PBMC of healthy volunteer N1, 20 μM): 22.8 ± 0.6%
- Apoptotic rate of 10 μM 6-shogaol ([2]; PBMC of healthy volunteer N2, 10 μM): 13.6 ± 0.9%
- Apoptotic rate of 20 μM 6-shogaol ([2]; PBMC of healthy volunteer N2, 20 μM): 12.3 ± 1.4%
- Apoptotic rate of 10 μM 6-shogaol ([2]; PBMC of healthy volunteer N3, 10 μM): 27.6 ± 2.4%
- Apoptotic rate of 20 μM 6-shogaol ([2]; PBMC of healthy volunteer N3, 20 μM): 31.9 ± 1.7%
- Apoptotic rate of 10 μM 6-shogaol ([2]; PBMC of healthy volunteer N4, 10 μM): 8.5 ± 0.8%
- Apoptotic rate of 20 μM 6-shogaol ([2]; PBMC of healthy volunteer N4, 20 μM): 9.7 ± 1.2%
- Apoptotic rate of 10 μM 6-shogaol ([2]; PBMC of healthy volunteer N5, 10 μM): 16.6 ± 4.8%
- Apoptotic rate of 20 μM 6-shogaol ([2]; PBMC of healthy volunteer N5, 20 μM): 12.8 ± 3.6%
- Apoptotic rate of 10 μM 6-shogaol ([2]; PBMC of healthy volunteer N6, 10 μM): 14.6 ± 0.9%
- Apoptotic rate of 20 μM 6-shogaol ([2]; PBMC of healthy volunteer N6, 20 μM): 12.3 ± 1.4%
- Apoptotic rate of 10 μM 6-shogaol ([2]; PBMC of healthy volunteer N7, 10 μM): 14.6 ± 1.4%
- Apoptotic rate of 20 μM 6-shogaol ([2]; PBMC of healthy volunteer N7, 20 μM): 15.9 ± 0.7%
- Apoptotic rate of 10 μM 6-shogaol ([2]; PBMC of healthy volunteer N8, 10 μM): 18.5 ± 1.8%
- Apoptotic rate of 20 μM 6-shogaol ([2]; PBMC of healthy volunteer N8, 20 μM): 21.7 ± 1.6%
- Apoptotic rate of 10 μM 6-shogaol ([2]; PBMC of healthy volunteer N9, 10 μM): 12.5 ± 2.9%
- Apoptotic rate of 20 μM 6-shogaol ([2]; PBMC of healthy volunteer N9, 20 μM): 14.8 ± 0.9%
- Apoptotic rate of 10 μM 6-shogaol ([2]; PBMC of healthy volunteer N10, 10 μM): 12.9 ± 1.3%
- Apoptotic rate of 20 μM 6-shogaol ([2]; PBMC of healthy volunteer N10, 20 μM): 16.5 ± 0.7%
- IC50 ([3]; Homo sapiens, U-937, 24 h, 24 hours, read-out: Mean IC50 after 24 hours): < 10 µM
- IC50 ([3]; Homo sapiens, U-937, 72 h, 72 hours, read-out: Mean IC50 after 72 hours): < 5 µM
- growth inhibition (activities of cells vs control) ([3]; 24 hours, FIG. 4): significantly decreased
- growth inhibition (activities of cells vs control) ([3]; 72 hours, FIG. 8): significantly decreased
- IC50 ([3]; 24 hours, read-out: Mean IC50 after 24 hours): 7.63 ± 0.47 µM
- IC50 ([3]; 72 hours, read-out: Mean IC50 after 72 hours): 4.93 ± 0.7 µM
- LD50 (ddY line mice; intraperitoneal injection): about 109.2 mg/kg
- LD50 (ddY line mice; intravenous injection): about 50.9 mg/kg
- LD50 (ddY line mice; oral administration): 687 mg/kg
- solubility in ethanol ([4]; ethanol): soluble
- solubility in water ([4]; water): insoluble
- growth inhibition of normal hepatic cell line LO-2 ([5]; 24 hours): didn't inhibit the proliferation
- growth inhibition of normal hepatic cell line LO-2 ([5]; 72 hours): didn't inhibit the proliferation
- toxicity on normal hepatic cells LO-2 ([5]; summary statement): No toxic reaction was found; also recorded: low toxicity
